Measured values: patent US9458137B2, “Substituted indol-5-ol derivatives and their therapeutical applications” (NantBioScience, Inc., priority 2012, dated 2016)

What was measured:
Experiment in all cases: Kinase panel activity
Assay type in all cases: biochemical
Settings in all cases: 0.1 μM, ATP Km
NEK6(h) = NEK6(h) (Homo sapiens, UniProt Q9HC98)
Method: (§1) The effect of NTW-3475 on kinase activity was tested for a wide range of kinases and is shown in Table 2: Summary Sheet, Activity % ATP Concentration: Km

mTOR/FKBP12(h) = mTOR/FKBP12(h) (Homo sapiens, UniProt P42345)
Method: as §1

Ax1(h) = Ax1(h) (Homo sapiens, UniProt P30530)
Method: as §1

JNK3(h) = JNK3(h) (Homo sapiens, UniProt P53779)
Method: as §1

SAPK3(h) = target: T1, SAPK3(h) (Homo sapiens, UniProt P53778)
T1 construct: purchased Millipore (KinaseProfiler service)
Method: as §1

PKBβ(h) = PKBβ(h) (Homo sapiens, UniProt P31751)
Method: as §1

PKCμ(h) = PKCμ(h) (Homo sapiens, UniProt Q15139)
Method: as §1

EGFR(h) = target: T2, EGFR(h) (Homo sapiens, UniProt P00533)
T2 construct: purchased Millipore (KinaseProfiler service)
Method: as §1

EGFR(L861Q)(h) = target: T3, EGFR(L861Q)(h) (Homo sapiens, UniProt P00533, L861Q)
T3 construct: purchased Millipore (KinaseProfiler service)
Method: as §1

PASK(h) = PASK(h) (Homo sapiens, UniProt Q96RG2)
Method: as §1

HIPK2(h) = HIPK2(h) (Homo sapiens, UniProt Q9H2X6)
Method: as §1

Lck(h) activated = Lck(h) activated (Homo sapiens, UniProt P06239)
Method: as §1

PAK4(h) = PAK4(h) (Homo sapiens, UniProt O96013)
Method: as §1

CK1γ3(h) = CK1γ3(h) (Homo sapiens, UniProt Q9Y6M4)
Method: as §1

Haspin(h) = Haspin(h) (Homo sapiens, UniProt Q8TF76)
Method: as §1

Fyn(h) = Fyn(h) (Homo sapiens, UniProt P06241)
Method: as §1

Met(D1246H)(h) = target: T4, Met(D1246H)(h) (Homo sapiens, UniProt P08581, D1228H)
T4 construct: purchased Millipore (KinaseProfiler service)
Method: as §1

CHK2(R145W)(h) = CHK2(R145W)(h) (Homo sapiens, UniProt O96017, R145W)
Method: as §1

CHK1(h) = CHK1(h) (Homo sapiens, UniProt O14757)
Method: as §1

Fms(Y969C)(h) = Fms(Y969C)(h) (Homo sapiens, UniProt P07333, Y969C)
Method: as §1

Ab1(T3151)(h) = Ab1(T3151)(h) (Homo sapiens, UniProt P00519, T315I)
Method: as §1

TLK2(h) = target: T5, TLK2(h) (Homo sapiens, UniProt Q86UE8)
T5 construct: purchased Millipore (KinaseProfiler service)
Method: as §1

Met(D1246N)(h) = target: T6, Met(D1246N)(h) (Homo sapiens, UniProt P08581, D1228N)
T6 construct: purchased Millipore (KinaseProfiler service)
Method: as §1

MRCKα(h) = target: T7, MRCKα(h) (Homo sapiens, UniProt Q5VT25)
T7 construct: purchased Millipore (KinaseProfiler service)
Method: as §1

PEK(h) = PEK(h) (Homo sapiens, UniProt Q9NZJ5)
Method: as §1

p70S6K(h) = p70S6K(h) (Homo sapiens, UniProt P23443)
Method: as §1

mTOR(h) = mTOR(h) (Homo sapiens, UniProt P42345)
Method: as §1

CK2α2(h) = CK2α2(h) (Homo sapiens, UniProt P19784)
Method: as §1

PKCα(h) = PKCα(h) (Homo sapiens, UniProt P17252)
Method: as §1

P1k3(h) = P1k3(h) (Homo sapiens, UniProt Q9H4B4)
Method: as §1

F1t4(h) = F1t4(h) (Homo sapiens, UniProt P35916)
Method: as §1

Rsk1(h) = target: T8, Rsk1(h) (Homo sapiens, UniProt Q15418)
T8 construct: purchased Millipore (KinaseProfiler service)
Method: as §1

IKKβ(h) = IKKβ(h) (Homo sapiens, UniProt O14920)
Method: as §1

F1t3(D835Y)(h) = F1t3(D835Y)(h) (Homo sapiens, UniProt P36888, D835Y)
Method: as §1

IRR(h) = IRR(h) (Homo sapiens, UniProt P14616)
Method: as §1

Ab1(Q252H)(h) = Ab1(Q252H)(h) (Homo sapiens, UniProt P00519, Q252H)
Method: as §1

ZIPK(h) = ZIPK(h) (Homo sapiens, UniProt O43293)
Method: as §1

CaMKIIβ(h) = CaMKIIβ(h) (Homo sapiens, UniProt Q13554)
Method: as §1

Met(Y1248D)(h) = target: T9, Met(Y1248D)(h) (Homo sapiens, UniProt P08581, Y1230D)
T9 construct: purchased Millipore (KinaseProfiler service)
Method: as §1

Lck(h) activated, sequence (P06239 whole entry): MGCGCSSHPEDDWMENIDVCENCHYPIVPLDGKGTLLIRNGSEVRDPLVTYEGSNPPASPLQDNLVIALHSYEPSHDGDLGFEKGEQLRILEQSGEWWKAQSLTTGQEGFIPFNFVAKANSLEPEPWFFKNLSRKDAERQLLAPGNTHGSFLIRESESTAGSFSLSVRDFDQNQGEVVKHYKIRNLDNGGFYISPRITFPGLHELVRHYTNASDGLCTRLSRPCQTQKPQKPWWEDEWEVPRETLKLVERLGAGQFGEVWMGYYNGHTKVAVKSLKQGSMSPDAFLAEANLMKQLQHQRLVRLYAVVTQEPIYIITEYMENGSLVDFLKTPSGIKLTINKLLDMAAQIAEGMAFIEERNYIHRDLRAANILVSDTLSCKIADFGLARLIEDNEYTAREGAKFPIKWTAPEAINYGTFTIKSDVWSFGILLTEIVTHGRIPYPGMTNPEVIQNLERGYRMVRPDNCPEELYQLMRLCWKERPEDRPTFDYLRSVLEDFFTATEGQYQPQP
T7 sequence (Q5VT25 whole entry): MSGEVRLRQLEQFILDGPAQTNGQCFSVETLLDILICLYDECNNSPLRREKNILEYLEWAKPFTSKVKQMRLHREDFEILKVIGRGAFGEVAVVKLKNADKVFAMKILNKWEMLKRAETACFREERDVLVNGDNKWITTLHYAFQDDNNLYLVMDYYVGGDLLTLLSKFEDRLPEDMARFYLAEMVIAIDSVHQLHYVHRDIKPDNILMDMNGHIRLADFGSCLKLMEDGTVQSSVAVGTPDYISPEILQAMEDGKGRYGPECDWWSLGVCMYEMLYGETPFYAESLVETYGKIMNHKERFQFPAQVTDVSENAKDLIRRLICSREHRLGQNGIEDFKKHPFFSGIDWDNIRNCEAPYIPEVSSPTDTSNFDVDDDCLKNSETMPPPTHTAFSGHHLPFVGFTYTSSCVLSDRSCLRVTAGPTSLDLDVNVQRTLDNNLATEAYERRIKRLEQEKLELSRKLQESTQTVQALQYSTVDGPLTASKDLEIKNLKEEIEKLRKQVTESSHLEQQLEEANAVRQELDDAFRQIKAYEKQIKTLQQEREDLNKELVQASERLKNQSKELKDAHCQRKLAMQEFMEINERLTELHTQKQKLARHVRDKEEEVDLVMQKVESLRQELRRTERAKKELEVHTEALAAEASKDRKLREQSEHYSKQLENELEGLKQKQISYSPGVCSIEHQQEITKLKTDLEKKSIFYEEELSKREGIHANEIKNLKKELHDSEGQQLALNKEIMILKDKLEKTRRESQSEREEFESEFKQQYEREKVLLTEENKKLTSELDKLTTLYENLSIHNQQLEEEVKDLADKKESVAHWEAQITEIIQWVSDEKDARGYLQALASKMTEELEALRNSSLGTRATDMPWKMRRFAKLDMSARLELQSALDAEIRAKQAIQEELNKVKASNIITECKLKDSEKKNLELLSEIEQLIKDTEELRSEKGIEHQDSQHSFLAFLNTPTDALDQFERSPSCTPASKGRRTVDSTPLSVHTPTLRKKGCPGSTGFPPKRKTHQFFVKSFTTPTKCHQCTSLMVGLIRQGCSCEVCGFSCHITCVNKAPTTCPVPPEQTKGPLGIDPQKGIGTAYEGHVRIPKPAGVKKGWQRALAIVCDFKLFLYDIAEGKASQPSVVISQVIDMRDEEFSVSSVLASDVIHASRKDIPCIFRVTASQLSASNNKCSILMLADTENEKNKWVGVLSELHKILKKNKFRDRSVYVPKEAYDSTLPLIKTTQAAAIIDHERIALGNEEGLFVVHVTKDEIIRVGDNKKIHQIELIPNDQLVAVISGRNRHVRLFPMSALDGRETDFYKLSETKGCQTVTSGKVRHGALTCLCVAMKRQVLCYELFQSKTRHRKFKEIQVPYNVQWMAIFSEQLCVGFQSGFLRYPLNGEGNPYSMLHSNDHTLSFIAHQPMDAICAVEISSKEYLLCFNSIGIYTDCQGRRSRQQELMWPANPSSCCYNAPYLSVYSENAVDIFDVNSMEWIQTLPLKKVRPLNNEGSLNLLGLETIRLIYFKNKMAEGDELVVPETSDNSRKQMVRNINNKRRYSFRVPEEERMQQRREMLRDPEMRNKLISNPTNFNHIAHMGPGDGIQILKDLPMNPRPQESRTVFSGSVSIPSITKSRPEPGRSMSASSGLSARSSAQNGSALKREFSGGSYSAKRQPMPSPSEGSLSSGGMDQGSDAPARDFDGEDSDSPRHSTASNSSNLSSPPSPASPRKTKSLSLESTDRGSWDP
CK1γ3(h), sequence (Q9Y6M4 whole entry): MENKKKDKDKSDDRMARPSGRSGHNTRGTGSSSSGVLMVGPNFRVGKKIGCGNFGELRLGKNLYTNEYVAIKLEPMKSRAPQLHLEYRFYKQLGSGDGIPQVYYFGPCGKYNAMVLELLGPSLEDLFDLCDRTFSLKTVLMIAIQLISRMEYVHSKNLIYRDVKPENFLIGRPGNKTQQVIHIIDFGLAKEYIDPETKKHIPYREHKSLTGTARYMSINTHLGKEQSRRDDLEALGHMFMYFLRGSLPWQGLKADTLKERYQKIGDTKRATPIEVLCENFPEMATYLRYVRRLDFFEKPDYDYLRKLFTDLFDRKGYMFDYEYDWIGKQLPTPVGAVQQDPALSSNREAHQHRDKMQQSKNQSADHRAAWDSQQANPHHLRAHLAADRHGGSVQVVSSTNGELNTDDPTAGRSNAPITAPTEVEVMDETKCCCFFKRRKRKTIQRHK
ZIPK(h), sequence (O43293 whole entry): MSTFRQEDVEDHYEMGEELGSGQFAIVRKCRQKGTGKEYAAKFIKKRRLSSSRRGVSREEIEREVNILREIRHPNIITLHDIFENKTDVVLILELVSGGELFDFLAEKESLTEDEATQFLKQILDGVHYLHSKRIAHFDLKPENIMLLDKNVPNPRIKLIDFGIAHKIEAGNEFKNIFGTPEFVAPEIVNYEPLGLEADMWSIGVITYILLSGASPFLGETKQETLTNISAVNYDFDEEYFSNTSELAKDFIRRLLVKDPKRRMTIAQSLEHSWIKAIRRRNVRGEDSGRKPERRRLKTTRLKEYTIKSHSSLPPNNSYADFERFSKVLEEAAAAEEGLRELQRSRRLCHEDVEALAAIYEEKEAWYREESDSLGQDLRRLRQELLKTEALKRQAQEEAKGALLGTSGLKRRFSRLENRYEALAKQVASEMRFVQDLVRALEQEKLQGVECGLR
CK2α2(h), sequence (P19784 whole entry): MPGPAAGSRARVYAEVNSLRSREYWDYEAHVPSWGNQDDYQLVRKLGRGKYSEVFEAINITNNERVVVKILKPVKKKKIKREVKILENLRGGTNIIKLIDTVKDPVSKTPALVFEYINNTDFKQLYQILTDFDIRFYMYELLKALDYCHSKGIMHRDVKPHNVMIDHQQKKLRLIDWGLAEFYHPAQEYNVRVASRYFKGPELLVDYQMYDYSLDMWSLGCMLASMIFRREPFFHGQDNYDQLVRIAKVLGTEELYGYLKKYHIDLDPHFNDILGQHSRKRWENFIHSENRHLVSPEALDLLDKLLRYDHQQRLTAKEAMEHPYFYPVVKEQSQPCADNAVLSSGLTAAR
T8 sequence (Q15418 whole entry): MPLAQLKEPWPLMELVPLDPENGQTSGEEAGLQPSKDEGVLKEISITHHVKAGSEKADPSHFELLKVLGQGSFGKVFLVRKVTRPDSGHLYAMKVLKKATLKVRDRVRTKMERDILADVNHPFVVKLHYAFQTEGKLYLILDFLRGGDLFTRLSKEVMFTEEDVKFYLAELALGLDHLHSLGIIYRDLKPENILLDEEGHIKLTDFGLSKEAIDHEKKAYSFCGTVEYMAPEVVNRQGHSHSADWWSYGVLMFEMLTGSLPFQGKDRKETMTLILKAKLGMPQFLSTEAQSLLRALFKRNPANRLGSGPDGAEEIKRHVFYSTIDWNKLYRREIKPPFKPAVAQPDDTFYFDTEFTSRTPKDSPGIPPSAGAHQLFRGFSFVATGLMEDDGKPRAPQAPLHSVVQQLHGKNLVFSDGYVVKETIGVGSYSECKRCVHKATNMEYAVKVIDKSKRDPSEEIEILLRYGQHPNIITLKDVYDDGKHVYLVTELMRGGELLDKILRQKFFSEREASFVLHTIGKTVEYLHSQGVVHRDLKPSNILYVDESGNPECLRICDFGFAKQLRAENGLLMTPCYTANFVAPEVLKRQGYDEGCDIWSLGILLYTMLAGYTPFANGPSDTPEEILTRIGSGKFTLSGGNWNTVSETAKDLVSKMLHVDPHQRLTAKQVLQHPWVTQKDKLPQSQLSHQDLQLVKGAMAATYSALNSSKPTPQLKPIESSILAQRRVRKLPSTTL
T5 sequence (Q86UE8 whole entry): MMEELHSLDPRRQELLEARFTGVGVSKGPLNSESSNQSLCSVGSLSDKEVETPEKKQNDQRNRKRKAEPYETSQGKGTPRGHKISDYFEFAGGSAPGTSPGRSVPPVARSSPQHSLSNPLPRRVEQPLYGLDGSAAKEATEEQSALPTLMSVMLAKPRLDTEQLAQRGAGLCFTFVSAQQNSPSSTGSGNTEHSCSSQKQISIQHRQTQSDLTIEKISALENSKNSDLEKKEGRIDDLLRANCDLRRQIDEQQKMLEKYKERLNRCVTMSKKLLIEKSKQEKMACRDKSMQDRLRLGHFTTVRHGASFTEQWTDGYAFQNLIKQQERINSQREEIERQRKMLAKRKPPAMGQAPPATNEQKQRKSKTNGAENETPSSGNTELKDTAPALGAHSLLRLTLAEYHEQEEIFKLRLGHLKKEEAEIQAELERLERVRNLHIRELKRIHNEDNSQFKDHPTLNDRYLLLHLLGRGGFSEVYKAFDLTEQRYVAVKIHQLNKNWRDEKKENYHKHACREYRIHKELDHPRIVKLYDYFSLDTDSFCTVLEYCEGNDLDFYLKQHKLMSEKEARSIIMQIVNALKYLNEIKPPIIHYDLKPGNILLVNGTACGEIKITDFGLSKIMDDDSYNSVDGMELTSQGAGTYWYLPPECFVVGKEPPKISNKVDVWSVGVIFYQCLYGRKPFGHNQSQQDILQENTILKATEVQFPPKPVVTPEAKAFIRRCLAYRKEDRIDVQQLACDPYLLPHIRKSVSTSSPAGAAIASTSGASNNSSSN

Which results are given for `Cc1cc2c(F)c(Oc3nc(Nc4cc(C5CC5)[nH]n4)cc(N4CCN(C)CC4)n3)cc(F)c2[nH]1` [NTW-3475]?
Activity % (NEK6(h)): 90%; Activity % (mTOR/FKBP12(h)): 63%; Activity % (Ax1(h)): 34%; Activity % (JNK3(h)): 111%; Activity % (SAPK3(h)): 115%; Activity % (PKBβ(h)): 97%; Activity % (PKCμ(h)): 95%; Activity % (EGFR(h)): 108%; Activity % (EGFR(L861Q)(h)): 52%; Activity % (PASK(h)): 91%; Activity % (HIPK2(h)): 101%; Activity % (Lck(h) activated): −1%; Activity % (PAK4(h)): 70%; Activity % (CK1γ3(h)): 117%; Activity % (Haspin(h)): 96%; Activity % (Fyn(h)): 1%; Activity % (Met(D1246H)(h)): 18%; Activity % (CHK2(R145W)(h)): 91%; Activity % (CHK1(h)): 113%; Activity % (Fms(Y969C)(h)): 4%; Activity % (Ab1(T3151)(h)): −2%; Activity % (TLK2(h)): 5%; Activity % (Met(D1246N)(h)): 20%; Activity % (MRCKα(h)): 102%; Activity % (PEK(h)): 103%; Activity % (p70S6K(h)): 84%; Activity % (mTOR(h)): 115%; Activity % (CK2α2(h)): 115%; Activity % (PKCα(h)): 95%; Activity % (P1k3(h)): 95%; Activity % (F1t4(h)): 0%; Activity % (Rsk1(h)): 84%; Activity % (IKKβ(h)): 109%; Activity % (F1t3(D835Y)(h)): 0%; Activity % (IRR(h)): 6%; Activity % (Ab1(Q252H)(h)): −2%; Activity % (ZIPK(h)): 104%; Activity % (CaMKIIβ(h)): 99%; Activity % (Met(Y1248D)(h)): 21%
